The text below walks through data of US6346518B1, “Itraconazole and saperconazole stereoisomers” (Janssen Pharmaceutica N.V., priority 1995, dated 2002).

Data set [1] can be described thus: solubility in water in the absence or presence of 2-hydroxypropyl-β-cyclodextrin (saturated solutions, UV spectrometry). Format: physicochemical. Particulars: ambient temperature. Here is the method: A 10 ml stock solution comprising 0, 2.5, 5, 7.5, 10, 20, 30 or 40% (weight by volume) 2-hydroxypropyl-β-cyclodextrin (M.S.=0.4) was put in a 20 ml tinted vial. To each vial there was added a quantity of itraconazole or saperconazole sufficient to yield a saturated solution. The vials were sonicated for 10 minutes and all vials were checked to ascertain that an undissolved remnant remained Where all the material had dissolved, another quantity of the material was added The vials were closed and protected from light by wrapping them in aluminum foil. The vials were then shaken in an appropriate apparatus. 24Hours later the vials were checked again to ascertain that an undissolved remnant of the material remained and where necessary a further quantity of the material was added. The vials were shaken for at least 72 hours and then allowed to stand until all undissolved material had precipitated. The vials were opened and the pH of the saturated solutions was measured. An aliquot of the supernatant solution was filtered and the amount of dissolved active ingredient was measured by UV spectrometry (255 nm), if necessary after diluting said aliquot to a concentration suitable for UV spectrometry.

Data set [2] is described as follows: solubility in artificial gastric juice. It is filed as physicochemical. Particulars: ambient temperature. Here is the method:
About 10 mg of either product was added to 100 ml artificial gastric juice (0.2 g NaCL+0.7 ml concentrated HCl diluted to 100 ml) at ambient temperature. The mixture was stirred and a sample was taken from each solution at regular intervals. The amount of dissolved active ingredient was determined following the procedure described in the previous example.

For data set [3] the following is noted: cited from earlier work.
For the next data set, the system named is Aspergillus spp. Particulars: compared with itraconazole; U.S. Pat. No. 4,916,134; cited from earlier work.
[4] abbreviates: 2-hydroxypropyl-β-cyclodextrin concentration 2.5%.
Where [5] appears, read: 2-hydroxypropyl-β-cyclodextrin concentration 5%.
Where [6] appears, read: 2-hydroxypropyl-β-cyclodextrin concentration 7.5%.
Setting [7] is: 2-hydroxypropyl-β-cyclodextrin concentration 10%.
Where [8] appears, read: 2-hydroxypropyl-β-cyclodextrin concentration 20%.
The mark [9] stands for this setting: 2-hydroxypropyl-β-cyclodextrin concentration 30%.
The mark [10] stands for this setting: 2-hydroxypropyl-β-cyclodextrin concentration 40%.

For `CCC(C)n1ncn(-c2ccc(N3CCN(c4ccc(OCC5COC(Cn6cncn6)(c6ccc(Cl)cc6Cl)O5)cc4)CC3)cc2)c1=O` (racemic) [itraconazole, (±)-cis-4-[4-[4-[4-[[2-(2,4-dichlorophenyl)-2-(1H-1,2,4-triazol-1-ylmethyl)-1,3-dioxolan-4-yl]methoxy]phenyl]-1-piperazinylphenyl]-2,4-dihydro-2-(1-methyl-propyl)-3H-1,2,4-triazol-3-one], the concentration in water in data set [1] (setting [4]) is on record as 0.36 mg/100 ml; in data set [1] (setting [5]), 1.79 mg/100 ml; in data set [1] (setting [6]), 4.74 mg/100 ml; in data set [1] (setting [7]) it was 10.28 mg/100 ml; in data set [1] (setting [8]) it was 50 mg/100 ml; in data set [1] (setting [9]) it was 95 mg/100 ml. Further, the concentration in water in data set [1] (setting [10]) is 174 mg/100 ml. In addition, the “concentration of dissolved active ingredient” value in data set [2] (1 h.) is given as 0.023 mg/100 ml; in data set [2] (2 h.), 0.079 mg/100 ml; in data set [2] (3 h.) it was 0.15 mg/100 ml; in data set [2] (4 h.), 0.19 mg/100 ml; in data set [2] (6 h.), 0.27 mg/100 ml; in data set [2] (26 h.) it was 0.40 mg/100 ml. Besides, the “concentration of dissolved active ingredient” value in data set [2] (46 h.) is 0.40 mg/100 ml; in data set [2] (51 h.) it was 0.41 mg/100 ml; in data set [2] (69 h.), 0.45 mg/100 ml. The solubility in water entry in data set [3] is recorded as “only very sparingly soluble in water”.
With `CCC(C)n1ncn(-c2ccc(N3CCN(c4ccc(OCC5COC(Cn6cncn6)(c6ccc(F)cc6F)O5)cc4)CC3)cc2)c1=O` (racemic) [saperconazole, (±)-cis-4-[4-[4-[4-[[2-(2,4-difluorophenyl)-2-(1H-2,4-triazol-1-yl-methyl)-1,3-dioxolan-4-yl]methoxylphenyl]-1-piperazinyl]-phenyl]-2,4-dihydro-2-(1-methylpropyl)-3H-1,2,4-triazol-3-one], in the data set on Aspergillus spp., the “activity against Aspergillus spp.” value is given as “improved activity against Aspergillus spp”. Also, in data set [3], the solubility in water result is given as “only very sparingly soluble in water”.
For “(+)-[2R-[2α,4α, 4(R)]]-4-[4-[4-[4[[dichlorophenyl)-2-(1H-1,2,4-triazol-1-ylmethyl)-1,3-dioxolan-4-yl]methoxy]phenyl]-1-piperazinyl]phenyl]-2,4-dihydro-2-(1-methylpropyl)-3H-1,2,4-triazol-3-one [Compound 4]”, the concentration in water in data set [1] (setting [4]) is recorded as 2.43 mg/100 ml; in data set [1] (setting [5]), 15.84 mg/100 ml; in data set [1] (setting [6]), 41.70 mg/100 ml; in data set [1] (setting [7]) it was 83.72 mg/100 ml; in data set [1] (setting [8]), 481 mg/100 ml; in data set [1] (setting [9]) it was 1166 mg/100 ml. Besides, in data set [1] (setting [10]), the concentration in water was 2017 mg/100 ml.
Turning to “(+)-[2S-[2α, 4α, 4(R)]1-4-[4-[4-[4-[[2-(2,4-dichlor triazol-1-ylmethyl)-1,3-dioxolan-4-yl]methoxy]phenyl]-1-piperazinyl]phenyl]-2,4-dihydro-2-(1-methylpropyl)-3H-1,2,4-triazol-3-one [Compound 3]”, the “concentration of dissolved active ingredient” value worked out at 0.005 mg/100 ml in data set [2] (5 min.); 0.037 mg/100 ml in data set [2] (15 min.); 0.15 mg/100 ml in data set [2] (30 min.); 0.32 mg/100 ml in data set [2] (1 h.); 0.69 mg/100 ml in data set [2] (2 h.); 1.09 mg/100 ml in data set [2] (3 h.). The “concentration of dissolved active ingredient” value in data set [2] (4 h.) is 1.41 mg/100 ml; in data set [2] (6 h.), 1.94 mg/100 ml; in data set [2] (26 h.), 3.93 mg/100 ml; in data set [2] (46 h.) it was 5.08 mg/100 ml; in data set [2] (51 h.), 5.39 mg/100 ml; in data set [2] (69 h.), 6.36 mg/100 ml.
As for “(−)-[2S-[2α, 4α, 4(S)[[-4-[4-[4-[4-[[2-(2,4-dichlorophenyl-2(1H-1,2,4-triazol-1-ylmethyl)-1,3-dioxolan-4-yl]methoxy]phenyl]-1-piperazinyl]phenyl ]-2,4-dihydro-2-(1-methylpropyl)-3H-1,2,4-triazol-3-one [Compound 2]”, the concentration in water in data set [1] (setting [4]) is reported as 3.58 mg/100 ml; in data set [1] (setting [5]), 16.36 mg/100 ml; in data set [1] (setting [6]) it was 41.39 mg/100 ml; in data set [1] (setting [7]) it was 78.16 mg/100 ml; in data set [1] (setting [8]), 332 mg/100 ml; in data set [1] (setting [9]), 846 mg/100 ml. In addition, the concentration in water in data set [1] (setting [10]) was determined as 1720 mg/100 ml.
